Results: paper PMC6692352, “DF2726A, a new IL-8 signalling inhibitor, is able to counteract chemotherapy-induced neuropathic pain” (Scientific Reports, 2019)

What was measured:
CYP 2C9 = CYP 2C9 (Homo sapiens, UniProt P11712); assay: CYP inhibition 2C9; assay type: in vitro ADME
Source text: (§1) Table 1 Physicochemical and in Vitro ADME Properties of DF2726A. | column: DF2726A

P-glycoprotein (P-gp) = target: T1, P-glycoprotein (P-gp) (Homo sapiens, UniProt P08183); assay: P-gp inhibition (Caco-2 cell assay); assay type: in vitro ADME
T1 construct: endogenous in cells; host or cells: Caco-2

[1] = system: 55 targets among GCPRs, ion channels, enzymes and transporters; details: binding panel tested at 10 µM; ion channels up to 30 µM
Protocol: target activities towards a panel of GPCRs, enzymes, ion channels, transporters and nuclear
water/HBSS to a final concentration of 10 μM. Cell membrane homogenates (48 μg protein) were
incubated for 60 min at 22°C with the respective reference compound in the absence or presence of
the test compound in a buffer containing 50 mM Tris-HCl (pH 7.4), 2 mM MgCl2 and 1 mM
EDTA. After incubation, the samples were filtered rapidly under vacuum through glass fiber filters
(GF/B, Packard Instruments, Meriden, CT, USA) presoaked with 0.3% polyethylenimine (PEI) and
rinsed several times with ice-cold 50 mM Tris-HCl using a 96-sample cell harvester (Unifilter,
Packard Instruments). The filters were dried, then counted for radioactivity in a scintillation counter
(Topcount, Packard Instruments) using a scintillation cocktail (Microscint-O, Packard Instruments).
The results were expressed as the percentage inhibition of the control radioligand-specific binding.
The compounds were tested at a single concentration of 10 µM in triplicate.
Tested targets were as follows:
GPCR: A2A (agonist radioligand), α1A (antagonist radioligand), α2A (antagonist radioligand), β1
(agonist radioligand), β2 (agonist radioligand), BK1 (antagonist and agonist radioligand), BK2
(antagonist and agonist radioligand), CB1 (antagonist and agonist radioligand), CB2 (antagonist and […]

[2] = system: oxaliplatin-induced cold allodynia; assay: Oxaliplatin-induced cold allodynia (acetone test); assay type: in vivo, male Wistar rats; details: 30 mg/kg os for 24 days; from day 5 (P < 0.01) to final test day (P < 0.001)
Protocol: Behavioural tests were performed on male Wistar rats (200–250 g, Harlan, Italy) housed in the animal care facility at the Department of Pharmacy of the University of Naples Federico II, Italy, as previously described. Animals were housed, in a group of five, in a room with controlled temperature (22 ± 1 °C), humidity (60 ± 10%) and light (12 h per day); food and water were available ad libitum. All animals were weighted on the day of each treatment. All behavioural tests were performed between 09:00 and 17:00 h, and the animals were used only once. Animal care and manipulations were conducted in conformity with International and National law and policies (EU Directive 2010/63/EU for animal experiments, ARRIVE guidelines, and the Basel declaration including the 3R concept). The procedures reported here were approved by the Institutional Committee on the Ethics of Animal Experiments (CVS) of the University of Naples Federico II and by Ministero della Salute under protocol no. 2014-00884607. […]
Cold sensitivity was measured as the number of foot withdrawal responses after application of acetone to the dorsal surface of the paw[8],[22]. […] The mean of paw withdrawal (expressed in numbers) was determined from an average of six separate measurements. Cold responses were measured before (day -1) and then 3, 5, 7, 10, 14 and 21 days after first administration of oxaliplatin or vehicle. […]

[3] = Metabolic stability, human; assay type: in vitro ADME; details: Test conc: 2.5 µM
Source text: as §1

hERG channel = target: T2, hERG channel (Homo sapiens, UniProt Q12809); assay: hERG inhibition, automated patch clamp (QPatch 16) in CHO-K1 cells; assay type: cell-based; details: tested at 0.01-1 mM
T2 construct: host or cells: CHO-K1
Protocol: mM Tris-HCl (pH 8.0), 1.98 mM phenol and 1.02 µM hematine. Thereafter, the reaction was initiated by adding 4 µM (COX1) or 2 µM (COX2) of arachidonic acid and the mixture was incubated for 5 min at RT. For basal control measurements, arachidonic acid was omitted from the reaction mixture. Following incubation, t he reaction was stopped by the addition of 1 M HCl then 1 M Tris/HCl (pH 8.0) followed by cooling to 4°C.
The fluorescence acceptor (d2 labeled PGE2) and the fluorescence donor (anti -PGE2 antibody labeled with europium Cryptate) were then added. After 120 min, the fluorescence transfer corresponding to the amount of residual PGE2 was measured at λex=337 nm, λem=620 nm and λem=665 nm using a microplate reader (Envision, Perkin Elmer). The enzyme activity was determined by dividing the signal measured at 665 nm by that measured at 620 nm (ratio). The results were expressed as a percent age inhibition of the control enzyme activity. The standard inhibitory reference compound was Diclofenac, which was tested in each experiment at several concentrations to obtain an inhibition curve from which its IC50 value was calculated. […]
The human ether-a-go-go related gene (hERG) inhibition assay was performed by Eurofins Panlabs Inc, USA. […] Single cell ionic currents were measured in the automated patch clamp configuration at room temperature by using QPatch 16 in strument. […]

CYP 2D6 = CYP 2D6 (Homo sapiens, UniProt P10635); assay: CYP inhibition 2D6; assay type: in vitro ADME
Source text: as §1

Metabolic stability, dog = assay type: in vitro ADME; details: Test conc: 2.5 µM
Source text: as §1

T2 sequence (Q12809 whole entry): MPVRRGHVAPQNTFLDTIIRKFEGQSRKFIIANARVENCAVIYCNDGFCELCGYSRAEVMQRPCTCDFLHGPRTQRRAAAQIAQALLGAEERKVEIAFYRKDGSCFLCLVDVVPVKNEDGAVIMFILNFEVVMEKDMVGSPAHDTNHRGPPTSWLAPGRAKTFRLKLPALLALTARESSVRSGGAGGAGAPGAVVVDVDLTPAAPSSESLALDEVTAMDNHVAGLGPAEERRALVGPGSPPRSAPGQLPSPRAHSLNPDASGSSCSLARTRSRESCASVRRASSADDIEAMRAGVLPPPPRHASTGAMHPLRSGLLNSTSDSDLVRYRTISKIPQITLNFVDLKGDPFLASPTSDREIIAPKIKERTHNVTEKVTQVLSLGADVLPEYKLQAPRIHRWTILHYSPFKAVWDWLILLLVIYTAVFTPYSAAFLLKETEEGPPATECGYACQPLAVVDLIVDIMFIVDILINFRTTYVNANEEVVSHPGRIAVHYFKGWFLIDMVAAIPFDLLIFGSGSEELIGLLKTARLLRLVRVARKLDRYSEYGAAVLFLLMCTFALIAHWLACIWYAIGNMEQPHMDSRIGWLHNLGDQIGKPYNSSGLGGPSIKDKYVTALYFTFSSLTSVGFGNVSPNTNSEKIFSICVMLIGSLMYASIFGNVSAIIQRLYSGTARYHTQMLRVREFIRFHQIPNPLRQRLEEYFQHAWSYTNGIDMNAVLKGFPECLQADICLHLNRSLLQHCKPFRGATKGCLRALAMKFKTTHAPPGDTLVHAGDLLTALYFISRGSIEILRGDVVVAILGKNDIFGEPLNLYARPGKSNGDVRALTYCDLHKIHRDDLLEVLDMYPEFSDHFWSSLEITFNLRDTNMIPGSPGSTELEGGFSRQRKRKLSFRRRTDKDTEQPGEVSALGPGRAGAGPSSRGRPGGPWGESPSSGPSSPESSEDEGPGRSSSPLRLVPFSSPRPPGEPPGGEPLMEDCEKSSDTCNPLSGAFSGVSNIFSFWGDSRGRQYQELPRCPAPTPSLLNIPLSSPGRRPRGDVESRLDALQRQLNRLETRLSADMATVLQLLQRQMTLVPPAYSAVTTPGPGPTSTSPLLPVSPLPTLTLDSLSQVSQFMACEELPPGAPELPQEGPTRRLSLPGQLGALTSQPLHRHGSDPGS
T1 sequence (P08183 whole entry): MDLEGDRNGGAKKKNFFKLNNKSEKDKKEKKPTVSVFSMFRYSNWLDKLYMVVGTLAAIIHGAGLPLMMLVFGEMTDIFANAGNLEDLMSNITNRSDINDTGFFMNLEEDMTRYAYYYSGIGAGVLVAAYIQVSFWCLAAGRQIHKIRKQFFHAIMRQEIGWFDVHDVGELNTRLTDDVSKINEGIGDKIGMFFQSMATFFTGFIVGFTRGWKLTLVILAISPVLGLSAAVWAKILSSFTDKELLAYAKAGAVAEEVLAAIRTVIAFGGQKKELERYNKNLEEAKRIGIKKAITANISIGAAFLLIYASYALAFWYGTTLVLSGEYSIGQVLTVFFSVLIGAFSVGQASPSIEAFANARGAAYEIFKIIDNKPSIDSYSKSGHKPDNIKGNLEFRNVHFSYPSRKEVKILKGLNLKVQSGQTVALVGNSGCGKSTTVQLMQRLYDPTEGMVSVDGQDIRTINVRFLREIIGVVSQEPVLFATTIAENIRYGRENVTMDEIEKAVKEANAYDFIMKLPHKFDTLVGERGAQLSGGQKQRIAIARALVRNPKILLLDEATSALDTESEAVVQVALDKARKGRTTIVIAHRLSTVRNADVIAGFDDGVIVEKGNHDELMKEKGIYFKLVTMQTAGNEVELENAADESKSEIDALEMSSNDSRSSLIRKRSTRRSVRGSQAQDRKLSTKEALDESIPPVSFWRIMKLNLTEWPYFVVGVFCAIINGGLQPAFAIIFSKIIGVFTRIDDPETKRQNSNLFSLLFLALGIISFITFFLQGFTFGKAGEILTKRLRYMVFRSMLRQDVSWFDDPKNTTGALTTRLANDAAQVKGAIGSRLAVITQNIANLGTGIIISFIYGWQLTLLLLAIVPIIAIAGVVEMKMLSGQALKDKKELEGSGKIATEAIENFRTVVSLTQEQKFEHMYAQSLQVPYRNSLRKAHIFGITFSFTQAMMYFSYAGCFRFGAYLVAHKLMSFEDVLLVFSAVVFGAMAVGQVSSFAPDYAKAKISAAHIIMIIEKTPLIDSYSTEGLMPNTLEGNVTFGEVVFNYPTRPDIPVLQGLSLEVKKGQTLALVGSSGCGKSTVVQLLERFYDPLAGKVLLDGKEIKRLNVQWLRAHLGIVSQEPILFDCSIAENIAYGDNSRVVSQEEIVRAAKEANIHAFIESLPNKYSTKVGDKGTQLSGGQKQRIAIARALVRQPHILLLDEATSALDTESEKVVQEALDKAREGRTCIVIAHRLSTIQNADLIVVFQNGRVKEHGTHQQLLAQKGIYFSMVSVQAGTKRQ
Sequence of CYP 2C9 (P11712 whole entry): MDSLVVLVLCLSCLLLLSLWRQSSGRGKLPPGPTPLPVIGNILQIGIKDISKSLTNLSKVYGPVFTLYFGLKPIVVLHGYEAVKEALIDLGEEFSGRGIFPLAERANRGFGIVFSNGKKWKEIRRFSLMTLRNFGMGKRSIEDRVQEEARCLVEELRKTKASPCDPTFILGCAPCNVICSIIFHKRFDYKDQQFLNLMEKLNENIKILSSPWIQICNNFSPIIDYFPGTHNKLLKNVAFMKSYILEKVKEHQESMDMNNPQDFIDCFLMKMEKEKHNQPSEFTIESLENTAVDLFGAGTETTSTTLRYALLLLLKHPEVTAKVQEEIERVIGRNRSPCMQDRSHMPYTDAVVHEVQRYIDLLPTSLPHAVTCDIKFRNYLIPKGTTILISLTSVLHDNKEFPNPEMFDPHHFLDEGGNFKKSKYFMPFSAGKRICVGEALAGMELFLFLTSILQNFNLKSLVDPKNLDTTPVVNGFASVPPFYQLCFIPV
Sequence of CYP 2D6 (P10635 whole entry): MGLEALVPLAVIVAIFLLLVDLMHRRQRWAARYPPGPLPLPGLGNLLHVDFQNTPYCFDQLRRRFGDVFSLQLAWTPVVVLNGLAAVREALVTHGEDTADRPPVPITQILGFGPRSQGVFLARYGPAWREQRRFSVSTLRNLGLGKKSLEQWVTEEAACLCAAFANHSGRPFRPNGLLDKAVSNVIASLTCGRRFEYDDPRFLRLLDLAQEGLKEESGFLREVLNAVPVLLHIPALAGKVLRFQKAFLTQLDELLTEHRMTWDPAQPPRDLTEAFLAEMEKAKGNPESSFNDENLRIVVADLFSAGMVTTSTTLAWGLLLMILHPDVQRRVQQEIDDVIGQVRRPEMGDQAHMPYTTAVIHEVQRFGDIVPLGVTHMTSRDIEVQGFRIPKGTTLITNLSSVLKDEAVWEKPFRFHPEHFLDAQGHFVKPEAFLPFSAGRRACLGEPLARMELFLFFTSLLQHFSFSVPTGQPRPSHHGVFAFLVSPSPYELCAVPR

**Q.** Which IC50 (CYP 2C9) does the source give for `CC(C)(C(=O)O)c1ccc(Nc2nc(C(F)(F)F)cs2)cc1` [DF2726A] here?
**A.** > 30 µM

**Q.** And the “P-glycoprotein (P-gp) inhibition” value (P-glycoprotein (P-gp))?
**A.** no P-glycoprotein (P-gp) inhibition

**Q.** And the “Selectivity for 55 targets in counterscreens” value [1]?
**A.** > 100 fold

**Q.** And the “Effect on oxaliplatin-induced cold allodynia (acetone paw withdrawal responses)” value [2]?
**A.** marked attenuation of cold allodynia

**Q.** And the Metabolic stability human [3]?
**A.** 7.0 µL/min/10^6 cells

**Q.** And the IC50 (hERG channel)?
**A.** > 1000 µM

**Q.** And the IC50 (CYP 2D6)?
**A.** > 30 µM

**Q.** What about the Metabolic stability dog (Metabolic stability, dog) of the same molecule?
**A.** 7.2 µL/min/10^6 cells
